Assay results as given in BindingDB's records for doi:10.1097/00001756-199710200-00002 (Cnrs Upr 9023, 1997).
Several values for one entry are separate records, joined by “and”; a condition that tells them apart may be missing. Identical values can stand only once.

Assays:
[1] = target: 5-hydroxytryptamine receptor 4 (Homo sapiens, UniProt Q13639)
[2] = target: 5-hydroxytryptamine receptor 4 (Rattus norvegicus, UniProt Q62758)
5-hydroxytryptamine receptor 4 (Rattus norvegicus, UniProt Q62758), sequence (Q62758 whole entry): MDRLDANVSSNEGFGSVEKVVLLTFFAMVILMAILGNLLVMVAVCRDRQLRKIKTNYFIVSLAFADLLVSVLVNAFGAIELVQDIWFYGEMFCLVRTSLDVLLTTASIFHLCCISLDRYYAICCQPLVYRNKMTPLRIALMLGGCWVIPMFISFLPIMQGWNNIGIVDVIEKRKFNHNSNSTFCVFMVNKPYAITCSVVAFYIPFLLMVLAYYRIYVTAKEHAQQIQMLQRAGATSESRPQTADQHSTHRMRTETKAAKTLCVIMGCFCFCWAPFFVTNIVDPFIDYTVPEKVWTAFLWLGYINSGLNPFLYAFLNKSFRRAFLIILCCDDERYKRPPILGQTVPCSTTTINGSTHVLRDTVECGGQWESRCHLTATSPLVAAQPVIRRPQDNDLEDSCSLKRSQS

5-hydroxytryptamine receptor 4 (Homo sapiens, UniProt Q13639), sequence (Q13639 whole entry): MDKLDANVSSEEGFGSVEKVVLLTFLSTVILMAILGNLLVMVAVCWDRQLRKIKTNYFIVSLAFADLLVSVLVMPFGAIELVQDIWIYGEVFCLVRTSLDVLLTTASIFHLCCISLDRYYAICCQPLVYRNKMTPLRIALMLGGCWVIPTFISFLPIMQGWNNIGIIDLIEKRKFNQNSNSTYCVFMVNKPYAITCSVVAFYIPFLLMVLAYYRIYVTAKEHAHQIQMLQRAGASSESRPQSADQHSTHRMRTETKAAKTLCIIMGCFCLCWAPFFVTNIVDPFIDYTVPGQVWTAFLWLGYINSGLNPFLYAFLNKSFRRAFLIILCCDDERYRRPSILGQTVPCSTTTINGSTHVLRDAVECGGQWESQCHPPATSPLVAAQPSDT

With `CC(C)n1c(=O)n(C(=O)NC2CC3CCC(C2)N3C)c2ccccc21` (centres undefined) [BIMU 8] the Ki [1] was 45.7 nM and the Ki [2] was 19.1 nM.

In the case of `COc1ccc2[nH]c(=O)n(C(=O)OC3CC4CCC(C3)N4C)c2c1` (centres undefined) [DAU 6285], the Ki [1] is reported as 18.6 nM and 10.5 nM and the Ki [2] is reported as 22.4 nM and 5.37 nM.

With `Cn1cc(C(=O)OCC2CCN(CCNS(C)(=O)=O)CC2)c2ccccc21` [GR 113808] the Ki [1] was 0.02 nM and 0.09 nM and the Ki [2] was 0.02 nM and 0.03 nM.

`COc1[nH]c2ccc(F)cc2c1C(=O)OCC1CCN(CCNS(C)(=O)=O)CC1` [GR-125487] was tested, and the Ki [1] was 0.02 nM and the Ki [2] was 0.0089 nM.

`COc1cc(N)c(Cl)cc1C(=O)NC1CCN2CCCC1C2` (centres undefined) [NSC_3035240] gave a Ki [2] of 112 nM.

`COc1cc(N)c(Cl)cc1C(=O)NC1CN2CCC1CC2` (centres undefined) [ZACOPRIDE,R] gave a Ki [1] of 282 nM and a Ki [2] of 186 nM.

`NCCc1c[nH]c2ccc(C(N)=O)cc12` [[3H]-5-carboxamidotryptamine] was tested, and the Ki [2] was 9120 nM.

In the case of `COc1ccc2[nH]cc(CCN)c2c1` [tryptamine, 5-Methoxy], the Ki [1] is reported as 155 nM and the Ki [2] is reported as 123 nM.
